In ChEMBL document CHEMBL2010743, “Adamantyl N-benzylbenzamide: new series of depigmentation agents with tyrosinase inhibitory activity” (Bioorg Med Chem Lett, 2012):

Legend:
B16 [1] = assay: cells; settings: Mus musculus
Tyrosinase = biological target: T1, Tyrosinase (Agaricus bisporus, UniProt O42713); assay: Inhibition of mushroom tyrosinase
T1 sequence (O42713 whole entry): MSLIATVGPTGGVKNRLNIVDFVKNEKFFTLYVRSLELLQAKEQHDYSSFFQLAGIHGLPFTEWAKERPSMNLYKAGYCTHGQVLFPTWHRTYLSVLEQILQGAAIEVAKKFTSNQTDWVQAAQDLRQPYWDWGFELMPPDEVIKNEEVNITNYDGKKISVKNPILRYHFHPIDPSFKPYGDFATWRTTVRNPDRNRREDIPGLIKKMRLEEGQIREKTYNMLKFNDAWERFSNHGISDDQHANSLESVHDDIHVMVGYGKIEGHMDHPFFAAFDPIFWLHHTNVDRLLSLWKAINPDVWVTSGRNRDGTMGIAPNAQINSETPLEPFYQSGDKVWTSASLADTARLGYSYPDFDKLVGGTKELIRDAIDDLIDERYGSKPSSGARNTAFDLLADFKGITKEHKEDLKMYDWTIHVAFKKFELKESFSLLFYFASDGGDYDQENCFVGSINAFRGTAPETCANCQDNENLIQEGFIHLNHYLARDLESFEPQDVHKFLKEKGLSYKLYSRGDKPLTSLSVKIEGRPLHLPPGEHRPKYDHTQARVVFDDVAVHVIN

in vitro = settings: mouse, B16 cells
Description: Cytotoxicity in mouse B16 cells assessed as cell viability at 10 uM after 72 hrs

[2] = biological target: T2, Tyrosinase (Agaricus bisporus) (UniProt O42713); assay: Ratio of kojic acid IC50 to compound IC50 for mushroom tyrosinase
T2 sequence (whole entry): T1 sequence (O42713 whole entry)

B16 [3] = assay: Antimelanogenic activity in mouse B16 cells assessed as inhibition of melanogenesis at 1 uM; type: functional
[4] = Cytotoxicity in mouse B16 cells assessed as cell viability at 1 uM after 72 hrs; type: cell-based; settings: read-out: Activity
[5] = biological target: T2, Tyrosinase (Agaricus bisporus); assay: Inhibition of mushroom tyrosinase at 1 uM
B16 [6] = assay: Ratio of kojic acid IC50 to compound IC50 for inhibition of melanogenesis in mouse B16 cells; type: functional
B16 [7] = assay: Antimelanogenic activity in mouse B16 cells assessed as inhibition of melanogenesis at 3 uM; type: functional

| SMILES | IC50 (B16 [1]) | IC50 (Tyrosinase) | viability at 72 h, 10 µM (in vitro) | also measured |
| --- | --- | --- | --- | --- |
| CCCCc1ccc(O)cc1O [RUCINOL] | 20000 nM | – | – | – |
| O=C(NCc1ccccc1O)c1cc(C23CC4CC(CC(C4)C2)C3)c(O)cc1O | – | – | – | inhibition [5]: < 5% |
| COc1ccc(CNC(=O)c2cc(C34CC5CC(CC(C5)C3)C4)c(O)cc2O)c(OC)c1 | – | – | – | inhibition [5]: < 5% |
| O=C(NCc1ccc(O)cc1O)c1cc(C23CC4CC(CC(C4)C2)C3)c(O)cc1O | – | 1100 nM | 62% | inhibition at 3 µM (B16 [7]): 90%; inhibition at 1 µM (B16 [3]): < 5%; viability at 72 h, 1 µM [4]: 86% |
| COc1cc(OC)c(C23CC4CC(CC(C4)C2)C3)cc1C(=O)NCc1ccc(O)cc1O | 1100 nM | 900 nM | 95% | Ratio IC50 (B16 [6]): 200 |
| O=C(NCc1ccc(O)cc1O)c1ccc(O)c(C23CC4CC(CC(C4)C2)C3)c1 | – | 900 nM | 41% | inhibition at 1 µM (B16 [3]): < 5%; viability at 72 h, 1 µM [4]: 99% |
| O=C(NCc1ccc(O)cc1)c1cc(C23CC4CC(CC(C4)C2)C3)c(O)cc1O | – | – | – | inhibition [5]: < 5% |

More lines, main results first:

| IC50 (B16 [1]) | IC50 (Tyrosinase) | SMILES | viability at 72 h, 10 µM (in vitro) | also measured |
| --- | --- | --- | --- | --- |
| 14200 nM | 400 nM | COc1ccc(C(=O)NCc2ccc(O)cc2O)c(OC)c1 | 100% | Ratio IC50 [2]: 30 |
| – | 1400 nM | COc1ccc(C(=O)NCc2ccc(O)cc2O)cc1C12CC3CC(CC(C3)C1)C2 | 44% | inhibition at 1 µM (B16 [3]): < 5%; viability at 72 h, 1 µM [4]: 100% |
| 1800 nM | 800 nM | COc1cc(O)c(C(=O)NCc2ccc(O)cc2O)cc1C12CC3CC(CC(C3)C1)C2 | 100% | Ratio IC50 (B16 [6]): 200 |
| 26700 nM | 900 nM | O=C(NCc1ccc(O)cc1O)c1ccc(O)cc1O | 100% | Ratio IC50 [2]: 30 |
| 27600 nM | 300 nM | COc1ccc(C(=O)NCc2ccc(O)cc2O)c(O)c1 | 96% | Ratio IC50 [2]: 30 |
